Entries after “also recorded” stand apart in the source; their conditions may differ. Non-standard residues stand in square brackets, D forms with d. No end group written: not given here. Hyp = O=C(O)[C@@H]1C[C@@H](O)CN1
System: flexor digitorum profundus tendon
Assay: Evaluation of antiadhesive effect in cut and sutured flexor digitorum profundus tendon (adhesion score, 3 portions)
Assay type: in vivo, rabbit
Details: 0.15 mL, 2 weeks
Procedure: As supplied animals, 13-week old rabbits (Kbl: JW, male) were used. By the same procedure as in the above-described Test Example 1, anesthesia, hair removal, holding, and sterilization were performed. Next, the skin covering a metatarsus of the left hind limb was incised longitudinally under anesthesia to expose flexor tendons. Among the exposed flexor tendons, a flexor digitorum profundus tendon was cut by sharp dissection using a scalpel. Then, the dissected region of the flexor digitorum profundus tendon was sutured with a suture (trade name: “6-0 Prolene”, Ethicon, Inc.) by a modified Kessler technique, hemostasis and washing with physiological saline were performed. Then, test samples were administered to the exposed flexor digitorum profundus tendon and its surroundings. The test samples were administered as follows. […] Then, the incised portion was sutured with a suture (trade name: “5-0 suture with needle for clinical use”, Matsuda Ika Kogyo CO., LTD.). The rabbit was fed with an e-collar around the neck to prevent self-injurious behavior. At 2 weeks after administration of the test sample, the rabbit was painlessly sacrificed by an overdose of Somnopentil (a trade name “pentobarbital sodium”, Kyoritsu Seiyaku Corporation) by auricular vein administration. The operated site was incised again, and degrees of adhesion were evaluated according to the criteria with respect to the following three portions: between flexor digitorum profundus tendon and gliding floor, between flexor digitorum profundus tendon and flexor digitorum superficialis tendon, and between flexor digitorum profundus tendon and other surrounding tissues. The total of the scores of the three portions was designated as a score for the individual. <Evaluation Criteria> 0: No adhesion 1: Easily dissectable from surrounding tissues by blunt dissection 2: Dissectable from surrounding tissues by blunt dissection 3: Dissection from surrounding tissues requires slightly sharp dissection 4: Dissection from surrounding tissues requires completely sharp dissection

[1] = Test Example 6, peptide 30% by weight with gel powder (B) 20% by weight
[2] = Test Example 9, tripeptide 30% by weight with gel powder (B) 20% by weight
[3] = Test Example 7, peptide 30% by weight with gel powder (B) 20% by weight
[4] = Test Example 5, peptide 30% by weight with crosslinked-gelatin sponge gel powder (B) 20% by weight

For “Gly-Pro [dipeptide 2, reference compound]”, the antiadhesive effect [1] was “the antiadhesive effect was decreased”.

Tyr-Pro-[Hyp] [tripeptide 8] was tested, and the antiadhesive effect [2] was “antiadhesive effects were observed”.

Ile-Pro-[Hyp] [tripeptide 5] was tested, and the antiadhesive effect [2] was “antiadhesive effects were observed”.

For Pro-Hyp [dipeptide 1], the antiadhesive effect [1] was “contribute to the antiadhesive effect”.

Arg-Pro-[Hyp] [tripeptide 7] was tested, and the antiadhesive effect [2] was “antiadhesive effects were observed”.

For (Gly-Pro-Hyp)10 [polypeptide 1], the antiadhesive effect [3] was “antiadhesive effects were observed; also recorded: lower than those in tripeptide 4 and oligopeptide 1”.

For Asn-Pro-[Hyp] [tripeptide 6], the antiadhesive effect [2] was “antiadhesive effects were observed”.

In the case of “Gly-Ala-[Hyp] [tripeptide 2, reference compound]”, the antiadhesive effect [4] is reported as “the antiadhesive effect was inferior to the case in which peptide mixture 1 was used”.

For Gly-Pro-[Hyp] [tripeptide 4], the antiadhesive effect [4] was “the same antiadhesive effect as in the case in which both peptide mixture 1 and the crosslinked-gelatin sponge gel were administered was observed”, the antiadhesive effect [1] was “contribute to the antiadhesive effect” and the antiadhesive effect [3] was “antiadhesive effects were observed”. For the same substance, the antiadhesive effect [2] was “antiadhesive effects were observed”.

In the case of (Gly-Pro-Hyp)5 [oligopeptide 1], the antiadhesive effect [3] is reported as “antiadhesive effects were observed”.

For “Gly-Pro-Ala [tripeptide 3, reference compound]”, the antiadhesive effect [4] was “the antiadhesive effect was inferior to the case in which peptide mixture 1 was used”.

— patent US11484564B2, “Adhesion prevention material” (priority 2017, dated 2022)
